Source: PubChem BioAssay AID192 (DTP/NCI, 2004)
Several values for one entry are separate records, joined by “and”; a condition that tells them apart may be missing. Equal values may be shown once. Toxic doses and inconclusive results are not listed. How the source made its calls: active means survival T/C of 150% or more; inactive means T/C below 125% in these data.

Tested on: BDF1 mice, B16 melanoma ip, median survival T/C
Assay: NCI In Vivo Anticancer Drug Screen. Data for tumor model B16 Melanoma (intraperitoneal) in B6D2F1 (BDF1) mice
Settings: endpoint: median survival time, higher = longer survival
Summary of the method: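 Tumor-bearing mice received test compound or vehicle. Survival or tumor size was then measured in both groups. The treated-group figure was divided by the control-group figure.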

[1] = dose: 50.0 mg/kg/injection, schedule: Q01DX009 (ip), vehicle: Klucel (hydroxypropylcellulose) (HPC)
[2] = dose: 50.0 mg/kg/injection, schedule: Q01DX009 (ip), vehicle: saline
[3] = dose: 100.0 mg/kg/injection, schedule: Q01DX009 (ip), vehicle: saline
[4] = dose: 200.0 mg/kg/injection, schedule: Q01DX009 (ip), vehicle: saline
[5] = dose: 100.0 mg/kg/injection, schedule: Q04DX003 (ip), vehicle: Klucel (hydroxypropylcellulose) (HPC)
[6] = dose: 200.0 mg/kg/injection, schedule: Q04DX003 (ip), vehicle: Klucel (hydroxypropylcellulose) (HPC)
[7] = dose: 100.0 mg/kg/injection, schedule: Q01DX009 (ip), vehicle: saline with Tween-80
[8] = dose: 200.0 mg/kg/injection, schedule: Q01DX009 (ip), vehicle: saline with Tween-80
[9] = dose: 100.0 mg/kg/injection, schedule: Q01DX009 (ip), vehicle: Klucel (hydroxypropylcellulose) (HPC)
[10] = dose: 10.0 mg/kg/injection, schedule: Q01DX009 (ip), vehicle: Klucel (hydroxypropylcellulose) (HPC)
[11] = dose: 20.0 mg/kg/injection, schedule: Q01DX009 (ip), vehicle: Klucel (hydroxypropylcellulose) (HPC)
[12] = dose: 25.0 mg/kg/injection, schedule: Q01DX009 (ip), vehicle: saline with Tween-80
[13] = dose: 50.0 mg/kg/injection, schedule: Q01DX009 (ip), vehicle: saline with Tween-80
[14] = dose: 12.5 mg/kg/injection, schedule: Q01DX009 (ip), vehicle: saline with Tween-80
[15] = dose: 6.25 mg/kg/injection, schedule: Q01DX009 (ip), vehicle: saline with Tween-80

Measured: T/C

Oc1ccc2ccccc2c1C1=NNc2n[nH]c(=S)n2N1
inactive: dose: 12.5 mg/kg/injection, schedule: Q01DX009 (ip), vehicle: Klucel (hydroxypropylcellulose) (HPC) 100 % of control | dose: 25.0 mg/kg/injection, schedule: Q01DX009 (ip), vehicle: Klucel (hydroxypropylcellulose) (HPC) 103 % of control | [1] 112 % of control

CC[As](=O)(O)CC
inactive: [2] 97 % of control | [3] 103 % of control | [4] 105 % of control

C1CC[N-]CC1.C1CC[N-]CC1.N#C[S-].N#C[S-].[Cu]
inactive: dose: 2.5 mg/kg/injection, schedule: Q04DX003 (ip), vehicle: saline with Tween-80 110 % of control | dose: 5.0 mg/kg/injection, schedule: Q04DX003 (ip), vehicle: saline with Tween-80 93 % of control | dose: 10.0 mg/kg/injection, schedule: Q04DX003 (ip), vehicle: saline with Tween-80 93 % of control

O=C(C=C(C(F)(F)Cl)C(F)(F)Cl)c1cccs1
inactive: dose: 0.31 mg/kg/injection, schedule: Q01DX009 (ip), vehicle: saline 97 % of control | dose: 0.62 mg/kg/injection, schedule: Q01DX009 (ip), vehicle: saline 92 % of control | dose: 2.5 mg/kg/injection, schedule: Q04DX003 (ip), vehicle: saline 97 % of control | dose: 5.0 mg/kg/injection, schedule: Q04DX003 (ip), vehicle: saline 105 % of control | dose: 10.0 mg/kg/injection, schedule: Q04DX003 (ip), vehicle: saline 90 % of control

COc1cc(NS(C)(=O)=O)ccc1Nc1c2ccc([N+](=O)[O-])cc2nc2c(C)cccc12
inactive: dose: 0.08 mg/kg/injection, schedule: Q01DX009 (ip), vehicle: saline with Tween-80 105 % of control | dose: 0.15 mg/kg/injection, schedule: Q01DX009 (ip), vehicle: saline with Tween-80 107 % of control | dose: 0.6 mg/kg/injection, schedule: Q01DX009 (ip), vehicle: saline with Tween-80 122 % of control

O=S(=O)(/N=C1C=C/C(=N/S(=O)(=O)c2ccccc2)C2C3C=CC(C3)C/12)c1ccccc1 (centres undefined)
inactive: [5] 92 % of control | [6] 86 % of control

CC(=O)OCC(CCC(C)C)=C(C)C
inactive: dose: 25.0 mg/kg/injection, schedule: Q04DX003 (ip), vehicle: saline with Tween-80 104 % of control | dose: 50.0 mg/kg/injection, schedule: Q04DX003 (ip), vehicle: saline with Tween-80 104 % of control | [7] 97 % of control | dose: 100.0 mg/kg/injection, schedule: Q04DX003 (ip), vehicle: saline with Tween-80 86 % of control and 97 % of control | [8] 104 % of control

CC1CCC2(C(=O)O)CCC3(C)C(=CCC4C5(C)CCC(O)C(C)(C)C5CCC43C)C2C1C (centres undefined)
inactive: [9] 98 % of control | dose: 200.0 mg/kg/injection, schedule: Q01DX009 (ip), vehicle: Klucel (hydroxypropylcellulose) (HPC) 91 % of control

O=C1/C(=N/O)CCc2ccccc21
inactive: [1] 91 % of control | [9] 100 % of control

CC#CC#C/C=C1\OC2(CCCCO2)C(O)C1OC(=O)CC(C)C (centres undefined)
inactive: [10] 103 % of control | [11] 103 % of control | dose: 40.0 mg/kg/injection, schedule: Q01DX009 (ip), vehicle: Klucel (hydroxypropylcellulose) (HPC) 94 % of control

COC(=O)c1c(C)cc(OC(=O)c2c(C)c(Cl)c(O)c(Cl)c2O)cc1O
inactive: dose: 5.0 mg/kg/injection, schedule: Q01DX009 (ip), vehicle: Klucel (hydroxypropylcellulose) (HPC) 97 % of control | [10] 94 % of control | [11] 100 % of control

O=C(O)C1C(C(=O)O)C2(Cl)C(Cl)=C(Cl)C1(Cl)C2(Cl)Cl.[Fe] (centres undefined)
inactive: [12] 93 % of control | [13] 95 % of control | [7] 93 % of control

O=C(COc1ccc(Cl)cc1)Nc1cc(C(F)(F)F)ccc1Cl
inactive: [12] 103 % of control | [13] 96 % of control | [7] 105 % of control

C(C#CCN1CCOCC1)#CCN1CCOCC1
inactive: [14] 102 % of control and 103 % of control | [12] 97 % of control | [13] 93 % of control and 96 % of control | [7] 90 % of control and 97 % of control (2×) | [8] 90 % of control and 97 % of control (2×) | dose: 400.0 mg/kg/injection, schedule: Q01DX009 (ip), vehicle: saline with Tween-80 90 % of control and 97 % of control and 107 % of control

Cc1ccc([N+](=O)[O-])cc1NC(=O)Oc1ccc(Cl)cc1Cl
inactive: [12] 93 % of control | [13] 90 % of control

CC(C)C(Br)C(=O)NCC(=O)O (centres undefined)
inactive: [14] 101 % of control | [12] 95 % of control | [13] 102 % of control

c1ccc2c(c1)nnn1c3cnccc3nc21
inactive: dose: 1.56 mg/kg/injection, schedule: Q01DX009 (ip), vehicle: saline with Tween-80 110 % of control | dose: 3.12 mg/kg/injection, schedule: Q01DX009 (ip), vehicle: saline with Tween-80 97 % of control and 111 % of control | [15] 93 % of control and 107 % of control | [14] 106 % of control and 121 % of control

CC1=C(C)C(=O)O[C@@H]([C@](C)(O)[C@]2(O)CC[C@@]3(O)[C@@H]4C[C@H]5O[C@]56CC=CC(=O)[C@]6(C)[C@H]4CC[C@]23C)C1
inactive: dose: 0.78 mg/kg/injection, schedule: Q01DX009 (ip), vehicle: saline 102 % of control | dose: 1.56 mg/kg/injection, schedule: Q01DX009 (ip), vehicle: saline 114 % of control

COc1cc(Cl)c(CC(=O)c2c[nH]c3ccccc23)cc1OC
inactive: [15] 100 % of control | [14] 89 % of control

O=C(CCl)Oc1cccc([N+](=O)[O-])c1
inactive: [12] 107 % of control | [13] 102 % of control | [7] 101 % of control

C1CN2CN3CCN(CN1C3)C2
inactive: dose: 12.5 mg/kg/injection, schedule: Q01DX009 (ip), vehicle: saline 99 % of control and 114 % of control | dose: 25.0 mg/kg/injection, schedule: Q01DX009 (ip), vehicle: saline 103 % of control and 113 % of control | [2] 123 % of control

CCCC[S][Sn]([CH2]CCC)([CH2]CCC)[S]CCCC
inactive: dose: 0.19 mg/kg/injection, schedule: Q01DX009 (ip), vehicle: saline with Tween-80 98 % of control | dose: 0.38 mg/kg/injection, schedule: Q01DX009 (ip), vehicle: saline with Tween-80 98 % of control | dose: 0.75 mg/kg/injection, schedule: Q01DX009 (ip), vehicle: saline with Tween-80 99 % of control

NCC1OC(OC2C(CO)OC(OC3C(O)C(N)CC(N)C3OC3OC(CO)C(O)C(O)C3N)C2O)C(N)C(O)C1O (centres undefined)
inactive: [2] 114 % of control | [3] 108 % of control | [4] 111 % of control | dose: 400.0 mg/kg/injection, schedule: Q01DX009 (ip), vehicle: saline 112 % of control

CCOc1ccc([NH-])c([NH-])c1.[Cl][Pt+2][Cl]
inactive: dose: 2.5 mg/kg/injection, schedule: Q01DX009 (ip), vehicle: distilled water + Tween-80 115 % of control | dose: 5.0 mg/kg/injection, schedule: Q01DX009 (ip), vehicle: distilled water + Tween-80 115 % of control | dose: 10.0 mg/kg/injection, schedule: Q01DX009 (ip), vehicle: distilled water + Tween-80 117 % of control | dose: 20.0 mg/kg/injection, schedule: Q01DX009 (ip), vehicle: distilled water + Tween-80 102 % of control

COc1cc(C(=O)CC(O)(C(F)(F)F)C(F)(F)F)cc(OC)c1OC
inactive: dose: 50.0 mg/kg/injection, schedule: Q04DX003 (ip), vehicle: Klucel (hydroxypropylcellulose) (HPC) 100 % of control | [5] 110 % of control | [6] 97 % of control
